Measurements taken from PubChem BioAssay (NCI).
Several values for one entry are separate records, joined by “and”; a condition that tells them apart may be missing. Equal values may be shown once.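 Each compound was tested at five concentrations against cells in 96-well plates for 48 hours. Abbreviation: GI50, concentration required for 50% inhibition of growth. TGI: concentration producing complete growth inhibition.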

What was measured:
Assay in all cases: NCI anticancer screen, dose series, 48 h; in the data active = GI50 below about 0.43 µM; inactive = the rest
SNB-75 CNS = tested on: SNB-75 CNS
T-47D breast = tested on: T-47D breast
CCRF-CEM leukemia = tested on: CCRF-CEM leukemia
OVCAR-5 ovarian = tested on: OVCAR-5 ovarian
SF-268 CNS = tested on: SF-268 CNS
SN12C renal = tested on: SN12C renal
LOX IMVI melanoma = tested on: LOX IMVI melanoma
K-562 leukemia = tested on: K-562 leukemia
NCI-H460 lung = tested on: NCI-H460 lung
OVCAR-8 ovarian = tested on: OVCAR-8 ovarian
A498 renal = tested on: A498 renal
UACC-257 melanoma = tested on: UACC-257 melanoma
SK-MEL-28 melanoma = tested on: SK-MEL-28 melanoma
EKVX NSCLC = tested on: EKVX NSCLC
HCT-15 colon = tested on: HCT-15 colon
RXF 393 renal = tested on: RXF 393 renal
HOP-62 NSCLC = tested on: HOP-62 NSCLC
MCF7 breast = tested on: MCF7 breast
SK-MEL-2 melanoma = tested on: SK-MEL-2 melanoma
U251 CNS = tested on: U251 CNS
SW-620 colon = tested on: SW-620 colon
IGROV1 ovarian = tested on: IGROV1 ovarian
DU-145 prostate = tested on: DU-145 prostate
OVCAR-4 ovarian = tested on: OVCAR-4 ovarian
NCI-H522 lung = tested on: NCI-H522 lung
COLO 205 colon = tested on: COLO 205 colon
TK-10 renal = tested on: TK-10 renal
ACHN renal = tested on: ACHN renal
SF-295 CNS = tested on: SF-295 CNS
UACC-62 melanoma = tested on: UACC-62 melanoma
SK-MEL-5 melanoma = tested on: SK-MEL-5 melanoma
NCI/ADR-RES ovarian = tested on: NCI/ADR-RES ovarian
HS 578T breast = tested on: HS 578T breast
OVCAR-3 ovarian = tested on: OVCAR-3 ovarian
PC-3 prostate = tested on: PC-3 prostate
786-0 renal = tested on: 786-0 renal
MDA-MB-435 = tested on: MDA-MB-435
RPMI-8226 leukemia = tested on: RPMI-8226 leukemia
HT29 colon = tested on: HT29 colon
BT-549 breast = tested on: BT-549 breast
SF-539 CNS = tested on: SF-539 CNS
A549 NSCLC = tested on: A549 NSCLC
SNB-19 CNS = tested on: SNB-19 CNS
UO-31 renal = tested on: UO-31 renal
HOP-92 NSCLC = tested on: HOP-92 NSCLC
NCI-H23 lung = tested on: NCI-H23 lung
MOLT-4 leukemia = tested on: MOLT-4 leukemia
MALME-3M melanoma = tested on: MALME-3M melanoma
SK-OV-3 ovarian = tested on: SK-OV-3 ovarian
MDA-MB-231 breast = tested on: MDA-MB-231 breast
NCI-H226 lung = tested on: NCI-H226 lung
CAKI-1 renal = tested on: CAKI-1 renal
KM12 colon = tested on: KM12 colon
HCT-116 colon = tested on: HCT-116 colon
HCC-2998 colon = tested on: HCC-2998 colon
HL-60(TB) leukemia = tested on: HL-60(TB) leukemia

c1ccc2c(c1)[nH]c1c2nc2sccn21
> 100 µM: TGI (SNB-75 CNS)
inactive: GI50 (SNB-75 CNS) 20.6 µM and 44.8 µM

CCOC(=O)Cc1csc(/N=C2\NC(=O)/C(=C3\C(=O)N(C)c4ccccc43)S2)n1
67.9 µM: TGI (CAKI-1 renal)
95.2 µM: TGI (MALME-3M melanoma)
> 100 µM: TGI (T-47D breast) | TGI (OVCAR-5 ovarian) | TGI (SF-268 CNS) | TGI (SN12C renal) | TGI (LOX IMVI melanoma) | TGI (K-562 leukemia) | TGI (OVCAR-8 ovarian) | TGI (A498 renal) | TGI (UACC-257 melanoma) | TGI (SK-MEL-28 melanoma) | TGI (EKVX NSCLC) | TGI (HCT-15 colon) | TGI (RXF 393 renal) | TGI (MCF7 breast) | TGI (SK-MEL-2 melanoma) | TGI (U251 CNS) | TGI (SW-620 colon) | TGI (DU-145 prostate) | TGI (OVCAR-4 ovarian) | TGI (COLO 205 colon) | TGI (TK-10 renal) | TGI (ACHN renal) | TGI (SK-MEL-5 melanoma) | TGI (NCI/ADR-RES ovarian) | TGI (HS 578T breast) | TGI (PC-3 prostate) | TGI (MDA-MB-435) | TGI (RPMI-8226 leukemia) | TGI (HT29 colon) | TGI (BT-549 breast) | TGI (SF-539 CNS) | TGI (A549 NSCLC) | TGI (SNB-19 CNS) | TGI (UO-31 renal) | TGI (HOP-92 NSCLC) | TGI (NCI-H23 lung) | TGI (MOLT-4 leukemia) | TGI (SK-OV-3 ovarian) | TGI (MDA-MB-231 breast) | TGI (NCI-H226 lung) | TGI (HCC-2998 colon)
69.2 µM: TGI (IGROV1 ovarian)
93.3 µM: TGI (NCI-H522 lung)
72.7 µM: TGI (OVCAR-3 ovarian)
87 µM: TGI (SF-295 CNS)
inactive: GI50 (T-47D breast) 81.5 µM | GI50 (CCRF-CEM leukemia) 26.1 µM | GI50 (OVCAR-5 ovarian) > 100 µM | GI50 (SF-268 CNS) 45.2 µM | GI50 (SN12C renal) 31 µM | GI50 (LOX IMVI melanoma) 34.6 µM | GI50 (K-562 leukemia) 36 µM | GI50 (NCI-H460 lung) 20.7 µM | GI50 (OVCAR-8 ovarian) 65.3 µM | GI50 (A498 renal) 46.8 µM | GI50 (UACC-257 melanoma) 79.1 µM | GI50 (SK-MEL-28 melanoma) 80.3 µM | GI50 (EKVX NSCLC) 44.1 µM | GI50 (HCT-15 colon) 39.7 µM | GI50 (RXF 393 renal) 73.3 µM | GI50 (HOP-62 NSCLC) 30.1 µM | GI50 (MCF7 breast) 46.8 µM | GI50 (SK-MEL-2 melanoma) 24.2 µM | GI50 (U251 CNS) 33.6 µM | GI50 (SW-620 colon) 52.1 µM | GI50 (IGROV1 ovarian) 20.6 µM | GI50 (DU-145 prostate) 41.4 µM | GI50 (OVCAR-4 ovarian) 35.2 µM | GI50 (NCI-H522 lung) 24.8 µM | GI50 (COLO 205 colon) 48.7 µM | GI50 (TK-10 renal) 31.9 µM | GI50 (ACHN renal) 35.9 µM | GI50 (SF-295 CNS) 29.8 µM | GI50 (UACC-62 melanoma) 26.1 µM | GI50 (SK-MEL-5 melanoma) 38 µM | GI50 (NCI/ADR-RES ovarian) 49.6 µM | GI50 (HS 578T breast) 66.7 µM | GI50 (OVCAR-3 ovarian) 28.2 µM | GI50 (PC-3 prostate) 34.1 µM | GI50 (786-0 renal) 28 µM | GI50 (MDA-MB-435) 36.6 µM | GI50 (RPMI-8226 leukemia) 32.4 µM | GI50 (HT29 colon) 44.5 µM | GI50 (BT-549 breast) 48.4 µM | GI50 (SF-539 CNS) 43.8 µM | GI50 (A549 NSCLC) 36.5 µM | GI50 (SNB-19 CNS) 52.5 µM | GI50 (UO-31 renal) 35.6 µM | GI50 (HOP-92 NSCLC) 52.3 µM | GI50 (NCI-H23 lung) 48 µM | GI50 (MOLT-4 leukemia) 40.3 µM | GI50 (MALME-3M melanoma) 21.8 µM | GI50 (SK-OV-3 ovarian) > 100 µM | GI50 (MDA-MB-231 breast) 37.4 µM | GI50 (NCI-H226 lung) 28.6 µM | GI50 (CAKI-1 renal) 23.5 µM | GI50 (KM12 colon) 23.3 µM | GI50 (HCT-116 colon) 28.1 µM | GI50 (HCC-2998 colon) 46.1 µM
83.8 µM: TGI (KM12 colon)
61.9 µM: TGI (CCRF-CEM leukemia)
87.9 µM: TGI (HOP-62 NSCLC)
83.6 µM: TGI (UACC-62 melanoma)
72.5 µM: TGI (786-0 renal)
60.1 µM: TGI (HCT-116 colon)
55.9 µM: TGI (NCI-H460 lung)

CCCCCCCCCCC(C[N+](C)(C)C/C=C/c1ccccc1)C(O)c1ccccc1 (stereo not given)
3.37 µM: TGI (DU-145 prostate)
2.63 µM: TGI (HL-60(TB) leukemia)
3.24 µM: TGI (SK-MEL-2 melanoma)
34.1 µM: TGI (CAKI-1 renal)
3.2 µM: TGI (SF-268 CNS)
6.31 µM: TGI (HCT-15 colon)
2.54 µM: TGI (IGROV1 ovarian)
2.08 µM: TGI (HOP-92 NSCLC)
34.6 µM: TGI (NCI/ADR-RES ovarian)
inactive: GI50 (SF-268 CNS) 1.47 µM | GI50 (HCT-15 colon) 2.29 µM | GI50 (SK-MEL-2 melanoma) 1.75 µM | GI50 (IGROV1 ovarian) 0.999 µM | GI50 (DU-145 prostate) 1.76 µM | GI50 (NCI/ADR-RES ovarian) 7.5 µM | GI50 (HL-60(TB) leukemia) 1.1 µM | GI50 (UO-31 renal) 2.09 µM | GI50 (HOP-92 NSCLC) 0.435 µM | GI50 (CAKI-1 renal) 12.2 µM
4.51 µM: TGI (UO-31 renal)
